Source: ChEMBL document CHEMBL3351221, “Synthetic derivatives of aromatic abietane diterpenoids and their biological activities” (Eur J Med Chem, 2014)
≈ marks a conversion by molar mass, not a printed value. Each block holds one compound with its values, some of them ahead of it.

How the values were obtained:
Enterococcus = test: Antimicrobial activity against Vancomycin-resistant Enterococcus; type: functional
Staphylococcus aureus [1] = test: Antimicrobial activity against methicillin-resistant Staphylococcus aureus; type: functional
[2] = Cytotoxicity against human HL60 cells; type: functional, cell-based; conditions: HL-60
Mus musculus = test: Gastroprotective activity in mouse assessed as reduction in HCl/EtOH-induced gastric lesions at 100 mg/kg; type: functional; conditions: Stomach
MRC5 = test: Cytotoxicity against human MRC5 cells; type: cell-based
AGS = test: Cytotoxicity against human AGS cells; type: cell-based
Pseudomonas fluorescens = test: Antimicrobial activity against Pseudomonas fluorescens; type: functional
Escherichia coli = test: Antimicrobial activity against Escherichia coli; type: functional
SMMC-7721 = test: Cytotoxicity against human SMMC7721 cells; type: functional, cell-based
Staphylococcus aureus [3] = test: Antimicrobial activity against Staphylococcus aureus; type: functional
[4] = Cytotoxicity against human Hey-1B cells; type: functional, cell-based

SMILES: CC(C)c1cc2c(cc1O)[C@@]1(C)CCCC(C)(C)[C@@H]1[C@H](O)C2
- MIC (Enterococcus): 4 µg/mL (≈ 13.2 µM)
- MIC (Staphylococcus aureus [1]): 4 µg/mL (≈ 13.2 µM)

SMILES: COC(=O)[C@H](C)NC(=O)[C@]1(C)CCC[C@]2(C)c3ccc(C(C)C)cc3CC[C@@H]12
- IC50 [2]: 2.3 µM

SMILES: Cc1cc(C)cc(NC(=O)[C@]2(C)CCC[C@]3(C)c4ccc(C(C)C)cc4CC[C@@H]23)c1
- inhibition in vivo at 100 mg/kg (Mus musculus): 67%
- IC50 (MRC5): > 1000 µM
- IC50 (AGS): > 1000 µM

SMILES: Cc1ccc(NC(=O)[C@]2(C)CCC[C@]3(C)c4ccc(C(C)C)cc4CC[C@@H]23)cc1
- inhibition in vivo at 100 mg/kg (Mus musculus): 67%
- IC50 (MRC5): > 1000 µM
- IC50 (AGS): > 1000 µM

SMILES: COc1ccc(NC(=O)[C@]2(C)CCC[C@]3(C)c4ccc(C(C)C)cc4CC[C@@H]23)cc1
- inhibition in vivo at 100 mg/kg (Mus musculus): 67%
- IC50 (MRC5): > 1000 µM
- IC50 (AGS): > 1000 µM

SMILES: CC(C)c1ccc2c(c1)CC[C@H]1[C@](C)(C(=O)Nc3cccc([N+](=O)[O-])c3)CCC[C@]21C
- inhibition in vivo at 100 mg/kg (Mus musculus): 67%
- IC50 (MRC5): > 1000 µM
- IC50 (AGS): > 1000 µM

SMILES: CC(C)c1ccc2c(c1)CC[C@H]1[C@](C)(C(=O)Nc3ccccc3Cl)CCC[C@]21C
- inhibition in vivo at 100 mg/kg (Mus musculus): 67%
- IC50 (MRC5): > 1000 µM
- IC50 (AGS): > 1000 µM

SMILES: CC(C)c1ccc2c(c1)CC[C@H]1[C@](C)(C(=O)Nc3ccc(I)cc3)CCC[C@]21C
- inhibition in vivo at 100 mg/kg (Mus musculus): 67%
- IC50 (MRC5): > 1000 µM
- IC50 (AGS): > 1000 µM

- MIC (Pseudomonas fluorescens): 3.9 µg/mL (≈ 8.09 µM)
- MIC (Escherichia coli): 3.9 µg/mL (≈ 8.09 µM)
SMILES: CC(C)c1ccc2c(c1)CC[C@H]1[C@](C)(C(=O)N/N=C/c3ccc(Cl)c([N+](=O)[O-])c3)CCC[C@]21C

SMILES: CC(C)c1ccc2c(c1)CC[C@H]1[C@](C)(NC(=O)Nc3ccc(F)cc3)CCC[C@]21C
- IC50 (SMMC-7721): 8.8 µM

SMILES: CC(C)c1ccc2c(c1)CC[C@H]1[C@](C)(NC(=O)Nc3cc(F)cc(F)c3)CCC[C@]21C
- IC50 (SMMC-7721): 8.8 µM

SMILES: CC(C)c1ccc2c(c1)CC[C@H]1[C@](C)(NC(=O)N3CCCCC3)CCC[C@]21C
- IC50 (SMMC-7721): 8.8 µM

SMILES: CC(C)c1ccc2c(c1)CC[C@H]1[C@](C)(C/N=C/c3ccc(F)cc3)CCC[C@]21C
- IC50 (SMMC-7721): 44.5 µM

SMILES: COC(=O)C[C@H](NC(=O)[C@]1(C)CCC[C@]2(C)c3ccc(C(C)C)cc3CC[C@@H]12)C(=O)OC
- IC50 [2]: 2.3 µM

SMILES: CCC(C)[C@H](NC(=O)[C@]1(C)CCC[C@]2(C)c3ccc(C(C)C)cc3CC[C@@H]12)C(=O)OC (some centres not stated)
- IC50 [2]: 2.3 µM

SMILES: COC(=O)[C@H](Cc1ccccc1)NC(=O)[C@]1(C)CCC[C@]2(C)c3ccc(C(C)C)cc3CC[C@@H]12
- IC50 [2]: 2.3 µM

SMILES: COC(=O)[C@H](CO)NC(=O)[C@]1(C)CCC[C@]2(C)c3ccc(C(C)C)cc3CC[C@@H]12
- IC50 [2]: 2.3 µM

SMILES: COC(=O)[C@@H](NC(=O)[C@]1(C)CCC[C@]2(C)c3ccc(C(C)C)cc3CC[C@@H]12)C(C)C
- IC50 [2]: 2.3 µM

- MIC (Staphylococcus aureus [3]): 7.81 µg/mL
- MIC (Escherichia coli): 250 µg/mL
SMILES: CC(C)c1ccc2c(c1)CC[C@H]1[C@](C)(C[N+](C)(C)C)CCC[C@]21C.COS(=O)(=O)[O-]

- MIC (Staphylococcus aureus [3]): 7.81 µg/mL
- MIC (Escherichia coli): 250 µg/mL
SMILES: CC(C)c1ccc2c(c1)CC[C@H]1[C@](C)(CNCCO)CCC[C@]21C.Cl

- MIC (Staphylococcus aureus [3]): 7.81 µg/mL
- MIC (Escherichia coli): 250 µg/mL
SMILES: CC(C)c1ccc2c(c1)CC[C@H]1[C@](C)(CNCc3ccccc3)CCC[C@]21C.Cl

- MIC (Staphylococcus aureus [3]): 7.81 µg/mL
- MIC (Escherichia coli): 250 µg/mL
SMILES: CC(C)c1ccc2c(c1)CC[C@H]1[C@](C)(C[N+](C)(CCO)CCO)CCC[C@]21C.COS(=O)(=O)[O-]

- MIC (Staphylococcus aureus [3]): 7.81 µg/mL
- MIC (Escherichia coli): 250 µg/mL
SMILES: CC(C)c1ccc2c(c1)CC[C@H]1[C@](C)(C[N+](CCO)(CCO)CCO)CCC[C@]21C.[Cl-]

- MIC (Staphylococcus aureus [3]): 7.81 µg/mL
- MIC (Escherichia coli): 250 µg/mL
SMILES: CC(C)c1ccc2c(c1)CC[C@H]1[C@](C)(C[N+](CCO)(CCO)Cc3ccccc3)CCC[C@]21C.[Cl-]

SMILES: CC(=O)NC[C@]1(C)CCC[C@]2(C)c3cc(/N=C/c4cc(Br)cc(Br)c4O)c(C(C)C)cc3CC[C@@H]12
- IC50 [4]: 15 µg/mL (≈ 24.8 µM)

SMILES: CC(=O)NC[C@]1(C)CCC[C@]2(C)c3cc(/N=C/c4ccc(O)cc4O)c(C(C)C)cc3CC[C@@H]12
- IC50 [4]: 15 µg/mL (≈ 32.4 µM)

SMILES: CC(=O)NC[C@]1(C)CCC[C@]2(C)c3cc(/N=C/c4cccc(O)c4)c(C(C)C)cc3CC[C@@H]12
- IC50 [4]: 15 µg/mL (≈ 33.6 µM)

SMILES: CC(=O)NC[C@]1(C)CCC[C@]2(C)c3cc(/N=C/c4cc(O)ccc4O)c(C(C)C)cc3CC[C@@H]12
- IC50 [4]: 15 µg/mL (≈ 32.4 µM)

SMILES: COc1ccc(/C=N/c2cc3c(cc2C(C)C)CC[C@H]2[C@](C)(CNC(C)=O)CCC[C@]32C)cc1
- IC50 [4]: 15 µg/mL (≈ 32.6 µM)

SMILES: COc1ccc(NC(=O)[C@]2(C)CCC[C@]3(C)c4ccc(C(C)C)cc4CC[C@@H]23)c(OC)c1
- inhibition in vivo at 100 mg/kg (Mus musculus): 67%
- IC50 (MRC5): > 1000 µM
- IC50 (AGS): > 1000 µM
